Assay results taken from patent publication US9546193B2, “Compositions and methods for 18F-fluorodeoxyglycosylamines” (The Regents of the University of California, priority 2013, dated 2017).
Read-outs that look alike come from different tables or passages of the source. Blank lines part the entries; values can stand above or below the molecule they belong to.

Columns and labels:
Format in all cases: binding
[1] = system: postmortem human brain Aβ-amyloid sites
Excerpt: (§1) The brain sections were air dried, exposed overnight on a phosphor film, and then placed on the Phosphor Autoradiographic Imaging System/Cyclone Storage Phosphor System (Packard Instruments Co).
as §1

human Aβ-amyloid plaques = test: 3H-PIB competition autoradiography on postmortem AD brain sections; details: 10 μM competitor; postmortem AD human brain slices; preliminary studies
Description: ^3H-PIB Binding: Human hippocampus sections (7 μm thick) were preincubated in 10% alcohol PBS buffer for 10 minutes. The brain sections were placed in a glass chamber and incubated with [^3H]-PIB (2 μCi/cc) in 10% alcohol PBS buffer, pH 7.4 at 37° C. for 1 hr. The slices were then washed with cold 10% alcohol PBS buffer (2×3 mins), cold deionized water 1 min, respectively. The brain sections were air dried, exposed overnight on a phosphor film, and then placed on the Phosphor Autoradiographic imaging System/Cyclone Storage Phosphor System (Packard Instruments Co). Regions of interest (ROIs) were drawn on the slices and the extent of binding of ^3H-PIB was measured with DLU/mm2 using the OptiQuant acquisition and analysis program (Packard Instruments Co).
Since FDGBTA is an analog of PIB, which is known to bind to human Aβ-amyloid plaques, the inventors tested competition of both PIB and FDGBTA with postmortem human brain Aβ-amyloid sites labeled with ^3H-PIB as is illustrated in Panel A of FIG. 5, with the corresponding photomicrographs in Panel B of FIG. 5.

Aβ-Amyloid plaques = test: Human brain homogenate assay, displacement of 3H-PIB; details: 3H-PIB displacement curve; rFDGBTA 10^−11 to 10^−4 M; PBS buffer, 10% alcohol, pH 7.4
Description: rFDGBTA: Reductive amination was carried out at room temperature using an anhydrous solution of molecular sieves, methanol and acetic acid. The yield for the reduced rFDGBTA was 94%. Human brain homogenate assay of rFDGBTA for Aβ-Amyloid plaques was investigated. The homogenate was suspended in different concentrations of rFDGBTA (10^−11 to 10^−4M) in the assay buffer (PBS buffer, 10% alcohol, pH 7.4). Nonspecific binding was determined by including […]. Total assay volume was 0.25 ml.

Molecule: 2-^18F-Fluorodeoxyglucose [18F-FDG]
binding to AD brain grey matter / Aβ-amyloid plaques (in words) [1]: did not exhibit any binding

Molecule: [11CH3]Nc1ccc(-c2nc3ccc(O)cc3s2)cc1 [11C-PIB]
binding to AD brain grey matter / Aβ-amyloid plaques (in words) ([1]; postmortem AD human brain sections, autoradiography): significant binding
ratio of binding, AD brain versus control subjects (grey matter) ([1]; postmortem human hippocampus sections, autoradiography): 6

reduction of 3H-PIB binding in the grey matter areas (human Aβ-amyloid plaques): 80%
Molecule: OCC1OC(Nc2ccc(-c3nc4ccc(O)cc4s3)cc2)C(F)C(O)C1O (centres unmarked) [FDGBTA]

binding compared to PIB (times weaker) (Aβ-Amyloid plaques): ~100 times
Molecule: OCC(O)C(O)C(O)C(F)CNc1ccc(-c2nc3ccc(O)cc3s2)cc1 (centres unmarked) [rFDGBTA]
